The target of this assay is T1, Papain (Carica papaya, UniProt P00784).
T1 sequence (P00784 whole entry): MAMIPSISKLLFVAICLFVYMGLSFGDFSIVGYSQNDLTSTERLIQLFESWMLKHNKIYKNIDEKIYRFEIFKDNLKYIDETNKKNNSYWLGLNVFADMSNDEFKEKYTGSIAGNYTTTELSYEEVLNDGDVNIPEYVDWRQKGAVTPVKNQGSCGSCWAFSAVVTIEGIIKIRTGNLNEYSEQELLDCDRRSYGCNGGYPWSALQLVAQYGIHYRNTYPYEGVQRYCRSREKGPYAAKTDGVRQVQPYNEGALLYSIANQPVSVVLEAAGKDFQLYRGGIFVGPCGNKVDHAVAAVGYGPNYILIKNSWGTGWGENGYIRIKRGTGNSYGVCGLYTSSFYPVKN
Kind of assay: Inhibitory activity measured against papain. The note with it: read-out: Ki app.

Results on 1 compound are retold here after ChEMBL document CHEMBL1131175, “Use of papain as a model for the structure-based design of cathepsin K inhibitors: crystal structures of two papain-inhibitor complexes demonstrate binding to S'-subsites” (J Med Chem, 1998).

For the compound `CC(C)C[C@H](NC(=O)OCc1ccccc1)C(=O)NCC(=O)CNC(=O)[C@H](CC(C)C)NC(=O)OCc1ccccc1`, the Ki worked out at 10 µM.
